{
  "source": "paper doi:10.1101/2025.04.23.650324v1",
  "about": "(biorxiv, 2025)",
  "assay_in_all_cases": "microbe, parasite or virus in culture",
  "key": {"[1]": {"system": "Klebsiella pneumoniae Kp8", "settings": "KP8, 18 h, read-out: ENOblock MIC (mg/L)"}, "[2]": {"system": "Klebsiella pneumoniae Kp13", "settings": "KP13, 18 h, read-out: ENOblock MIC (mg/L)"}, "[3]": {"system": "Klebsiella pneumoniae Kp6", "settings": "KP6, 18 h, read-out: ENOblock MIC (mg/L)"}, "[4]": {"system": "Klebsiella pneumoniae Kp9", "settings": "KP9, 18 h, read-out: ENOblock MIC (mg/L)"}, "[5]": {"system": "Klebsiella pneumoniae Kp7", "settings": "KP7, 18 h, read-out: ENOblock MIC (mg/L)"}, "[6]": {"system": "Klebsiella pneumoniae Kp14", "settings": "KP14, 18 h, read-out: ENOblock MIC (mg/L)"}, "[7]": {"system": "Klebsiella pneumoniae Kp11", "settings": "KP11, 18 h, read-out: ENOblock MIC (mg/L)"}, "[8]": {"system": "Klebsiella pneumoniae Kp12", "settings": "KP12, 18 h, read-out: ENOblock MIC (mg/L)"}, "[9]": {"system": "Klebsiella pneumoniae Kp15", "settings": "KP15, 18 h, read-out: ENOblock MIC (mg/L)"}, "[10]": {"system": "Klebsiella pneumoniae Kp10", "settings": "KP10, 18 h, read-out: ENOblock MIC (mg/L)"}, "Escherichia coli CRA20": {"system": "Escherichia coli CRA20", "settings": "CRA20, 18 h, read-out: ENOblock MIC (mg/L)"}, "Escherichia coli CRA32": {"system": "Escherichia coli CRA32", "settings": "CRA32, 18 h, read-out: ENOblock MIC (mg/L)"}, "Escherichia coli CRA17": {"system": "Escherichia coli CRA17", "settings": "CRA17, 18 h, read-out: ENOblock MIC (mg/L)"}, "Escherichia coli R2": {"system": "Escherichia coli R2", "settings": "R2, 18 h, read-out: ENOblock MIC (mg/L)"}, "Escherichia coli R5": {"system": "Escherichia coli R5", "settings": "R5, 18 h, read-out: ENOblock MIC (mg/L)"}, "Escherichia coli CRA8": {"system": "Escherichia coli CRA8", "settings": "CRA8, 18 h, read-out: ENOblock MIC (mg/L)"}, "Escherichia coli CRA57": {"system": "Escherichia coli CRA57", "settings": "CRA57, 18 h, read-out: ENOblock MIC (mg/L)"}, "Escherichia coli CRA5": {"system": "Escherichia coli CRA5", "settings": "CRA5, 18 h, read-out: ENOblock MIC (mg/L)"}, "Escherichia coli CRA7": {"system": "Escherichia coli CRA7", "settings": "CRA7, 18 h, read-out: ENOblock MIC (mg/L)"}, "Escherichia coli R6": {"system": "Escherichia coli R6", "settings": "R6, 18 h, read-out: ENOblock MIC (mg/L)"}, "[11]": {"system": "Acinetobacter baumannii #19", "settings": "18 h, read-out: ENOblock MIC (mg/L)"}, "[12]": {"system": "Acinetobacter baumannii #22", "settings": "18 h, read-out: ENOblock MIC (mg/L)"}, "[13]": {"system": "Acinetobacter baumannii #20", "settings": "18 h, read-out: ENOblock MIC (mg/L)"}, "[14]": {"system": "Acinetobacter baumannii #11", "settings": "18 h, read-out: ENOblock MIC (mg/L)"}, "[15]": {"system": "Acinetobacter baumannii #17", "settings": "18 h, read-out: ENOblock MIC (mg/L)"}, "[16]": {"system": "Acinetobacter baumannii #14", "settings": "18 h, read-out: ENOblock MIC (mg/L)"}, "[17]": {"system": "Acinetobacter baumannii #16", "settings": "18 h, read-out: ENOblock MIC (mg/L)"}, "[18]": {"system": "Acinetobacter baumannii #21", "settings": "18 h, read-out: ENOblock MIC (mg/L)"}, "[19]": {"system": "Acinetobacter baumannii #1", "settings": "18 h, read-out: ENOblock MIC (mg/L)"}, "[20]": {"system": "Acinetobacter baumannii #10", "settings": "18 h, read-out: ENOblock MIC (mg/L)"}},
  "data": [
    {"smiles": "NCCOCCOCCNC(=O)Cc1ccc(Nc2nc(NCc3ccc(F)cc3)nc(NCC3CCCCC3)n2)cc1", "note": "[ENOblock]", "values": [
      {"measurement": "MIC", "setting": "[1]", "value": 64, "unit": "mg/L"},
      {"measurement": "MIC", "setting": "[2]", "value": 64, "unit": "mg/L"},
      {"measurement": "MIC", "setting": "[3]", "value": 32, "unit": "mg/L"},
      {"measurement": "MIC", "setting": "[4]", "value": 64, "unit": "mg/L"},
      {"measurement": "MIC", "setting": "[5]", "value": 16, "unit": "mg/L"},
      {"measurement": "MIC", "setting": "[6]", "value": 64, "unit": "mg/L"},
      {"measurement": "MIC", "setting": "[7]", "value": 16, "unit": "mg/L"},
      {"measurement": "MIC", "setting": "[8]", "value": 64, "unit": "mg/L"},
      {"measurement": "MIC", "setting": "[9]", "value": 64, "unit": "mg/L"},
      {"measurement": "MIC", "setting": "[10]", "value": 32, "unit": "mg/L"},
      {"measurement": "MIC", "setting": "Escherichia coli CRA20", "value": 32, "unit": "mg/L"},
      {"measurement": "MIC", "setting": "Escherichia coli CRA32", "value": 8, "unit": "mg/L"},
      {"measurement": "MIC", "setting": "Escherichia coli CRA17", "value": 32, "unit": "mg/L"},
      {"measurement": "MIC", "setting": "Escherichia coli R2", "value": 32, "unit": "mg/L"},
      {"measurement": "MIC", "setting": "Escherichia coli R5", "value": 32, "unit": "mg/L"},
      {"measurement": "MIC", "setting": "Escherichia coli CRA8", "value": 16, "unit": "mg/L"},
      {"measurement": "MIC", "setting": "Escherichia coli CRA57", "value": 16, "unit": "mg/L"},
      {"measurement": "MIC", "setting": "Escherichia coli CRA5", "value": 16, "unit": "mg/L"},
      {"measurement": "MIC", "setting": "Escherichia coli CRA7", "value": 16, "unit": "mg/L"},
      {"measurement": "MIC", "setting": "Escherichia coli R6", "value": 16, "unit": "mg/L"},
      {"measurement": "MIC", "setting": "[11]", "value": 32, "unit": "mg/L"},
      {"measurement": "MIC", "setting": "[12]", "value": 16, "unit": "mg/L"},
      {"measurement": "MIC", "setting": "[13]", "value": 8, "unit": "mg/L"},
      {"measurement": "MIC", "setting": "[14]", "value": 16, "unit": "mg/L"},
      {"measurement": "MIC", "setting": "[15]", "value": 16, "unit": "mg/L"},
      {"measurement": "MIC", "setting": "[16]", "value": 16, "unit": "mg/L"},
      {"measurement": "MIC", "setting": "[17]", "value": 16, "unit": "mg/L"},
      {"measurement": "MIC", "setting": "[18]", "value": 8, "unit": "mg/L"},
      {"measurement": "MIC", "setting": "[19]", "value": 16, "unit": "mg/L"},
      {"measurement": "MIC", "setting": "[20]", "value": 16, "unit": "mg/L"}
    ]}
  ]
}
